Source: ChEMBL document CHEMBL5728507, “Tricyclic heterocyclic derivatives and uses thereof” (2021)

Target: Macrophage colony-stimulating factor 1 receptor (Homo sapiens, UniProt P07333)
Experiment: Biochemical Assay: IC50 values were determined using the Z′-LYTE® activity assay, with ATP concentration used at Km app for the specific assay (500 μM ATP for CSF-1R (FMS) and 75 μM ATP for KDR (VEGFR2)).The Z′-LYTE® biochemical assay employs a fluorescence-based, coupled-enzyme format and is based on the differential sensitivity of phosphorylated and non-phosphorylated peptides to proteolytic …

Sequence of Macrophage colony-stimulating factor 1 receptor (P07333 whole entry): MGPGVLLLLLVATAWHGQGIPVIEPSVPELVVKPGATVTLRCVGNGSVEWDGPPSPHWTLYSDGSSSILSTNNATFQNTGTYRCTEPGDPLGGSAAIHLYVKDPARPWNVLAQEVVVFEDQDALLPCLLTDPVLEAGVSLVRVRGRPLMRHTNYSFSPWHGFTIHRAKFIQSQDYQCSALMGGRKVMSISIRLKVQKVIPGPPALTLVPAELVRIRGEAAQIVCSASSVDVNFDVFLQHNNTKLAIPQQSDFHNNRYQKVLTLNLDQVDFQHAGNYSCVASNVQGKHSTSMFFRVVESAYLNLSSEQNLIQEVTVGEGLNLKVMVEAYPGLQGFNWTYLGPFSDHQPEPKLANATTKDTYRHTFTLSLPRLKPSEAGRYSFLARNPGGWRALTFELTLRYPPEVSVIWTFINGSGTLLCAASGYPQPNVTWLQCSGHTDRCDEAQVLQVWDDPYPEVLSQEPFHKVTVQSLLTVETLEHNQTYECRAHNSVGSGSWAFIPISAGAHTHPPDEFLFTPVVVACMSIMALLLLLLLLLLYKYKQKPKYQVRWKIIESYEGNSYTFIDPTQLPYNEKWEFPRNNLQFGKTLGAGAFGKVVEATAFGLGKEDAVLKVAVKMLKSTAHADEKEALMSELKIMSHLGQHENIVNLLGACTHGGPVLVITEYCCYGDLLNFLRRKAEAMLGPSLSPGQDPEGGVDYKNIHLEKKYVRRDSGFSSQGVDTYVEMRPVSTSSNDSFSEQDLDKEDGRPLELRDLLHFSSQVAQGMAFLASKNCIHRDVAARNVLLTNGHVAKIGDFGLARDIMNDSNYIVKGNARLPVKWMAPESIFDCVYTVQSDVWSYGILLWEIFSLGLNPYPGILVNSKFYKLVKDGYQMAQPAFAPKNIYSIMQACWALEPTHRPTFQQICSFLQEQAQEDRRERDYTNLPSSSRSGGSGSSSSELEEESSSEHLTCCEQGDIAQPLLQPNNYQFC

SMILES | IC50 [nM]
Cc1cc(OCCCN(C)C)c2oc3cc(Oc4cccc(NC(=O)Nc5ccccc5)c4)ccc3c(=O)c2c1 | < 100
Cc1cc(OCCN(C)C)c2oc3cc(Oc4cccc(NC(=O)Nc5ccccc5)c4)ccc3c(=O)c2c1 | < 100
Cc1cc(OCCN(C)C)c2oc3cc(Oc4cccc(C(=O)Nc5ccccc5)c4)ccc3c(=O)c2c1 | < 100

Now from value to molecule:

IC50 [nM] | SMILES
< 100 | Cc1cc(OCCCN2C[C@@H](C)N[C@@H](C)C2)c2oc3cc(Oc4ccc(CCC(=O)NC5CCCC5)nc4)ccc3c(=O)c2c1
< 100 | Cc1cc(OCCCN(C)C)c2oc3cc(Oc4cccc(C(=O)Nc5ccccc5)c4)ccc3c(=O)c2c1
< 100 | Cc1cc(OCCN(C)C)c2oc3cc(Oc4ccc(CCC(=O)N5CCCC5)nc4)ccc3c(=O)c2c1
